System: Wnt activity (Sp5-Luc reporter, SW480 colon carcinoma cells)
Test: Screening assay for Wnt activity: Sp5-Luc reporter gene assay in SW480 cells
Format: cell-based
Conditions: Homo sapiens, 42 h incubation, luminescence
Description: The screening assay for Wnt activity is described as follows. Reporter cell lines can be generated by stably transducing cancer cell lines (e.g., colon cancer) or primary cells (e.g., IEC-6 intestinal cells) with a lentiviral construct that includes a Wnt-responsive promoter driving expression of the firefly luciferase gene.
SW480 colon carcinoma cells were transduced with a lentiviral vector expressing luciferase with a human Sp5 promoter consisting of a sequence of eight TCF/LEF binding sites. SW480 cells stably expressing the Sp5-Luc reporter gene and a hygromycin resistance gene were selected by treatment with 150 μg/ml of hygromycin for 7 days. These stably transduced SW480 cells were expanded in cell culture and used for all further screening activities. For Sp5-Luc reporter gene assays, the cells were plated at 10,000 cells/well in 96-well plates with growth medium containing 10% fetal calf serum and incubated overnight at 37° C. and 5% CO2. Each compound was dissolved in DMSO as a 10 mM stock in standard j-vials and used to prepare compound source plates in dose-response format with 3-fold serial dilutions and a 10 mM top concentration. Compound transfer from serially diluted source plates to assay plates containing the cells was accomplished using a pintool (Multimek 96, Beckman equipped with V&P Scientific FP1S50H pins) based liquid handling protocol. This protocol used a slotted pin to transfer 50 nl of compound from a source plate well to an assay plate well containing 50 μl of cells in growth medium. […] Control wells received 50 nl of DMSO treatment for normalization and calculating IC50 values. The treated cells were incubated at 37° C. and 5% CO2 for an additional forty-two hours. Following incubation, the growth medium was removed and 50 μl of BrightGlo luminescence reagent (Promega) was added to each well of the 96-well assay plates. The plates were placed on an orbital shaker for 5 min and then luminescence was quantified on the Victor3 (Perkin Elmer) plate reader. Readings were normalized to DMSO only treated cells, and normalized activities were utilized for IC50 calculations using the dose-response log (inhibitor) vs. response-variable slope (four parameters) nonlinear regression feature available in GraphPad Prism 5.0 or 6.0.

Row | Compound | IC50
1 | CN(C)Cc1cncc(-c2ccc3[nH]nc(-c4nc5c(-c6ccsc6)nccc5[nH]4)c3c2F)c1 [Compound 1573, 1-(5-(4-Fluoro-3-(4-(thiophen-3-yl)-1H-imidazo[4,5-c]pyridin-2-yl)-1H-indazol-5-yl)pyridin-3-yl)-N,N-dimethylmethanamine] | 3060 nM
2 | CN(C)Cc1cncc(-c2ccc3[nH]nc(-c4nc5c(-c6cccc(F)c6)nccc5[nH]4)c3c2F)c1 [Compound 1339, 1-(5-(4-Fluoro-3-(4-(3-fluorophenyl)-1H-imidazo[4,5-c]pyridin-2-yl)-1H-indazol-5-yl)pyridin-3-yl)-N,N-dimethylmethanamine] | 1180 nM
3 | CN(C)Cc1cncc(-c2cc(F)c3[nH]nc(-c4nc5c(-c6ccsc6)nccc5[nH]4)c3c2)c1 [Compound 688, 1-(5-(7-Fluoro-3-(4-(thiophen-3-yl)-1H-imidazo[4,5-c]pyridin-2-yl)-1H-indazol-5-yl)pyridin-3-yl)-N,N-dimethylmethanamine] | 415 nM
4 | O=C(CC1CCCCC1)Nc1cncc(-c2ccc3[nH]nc(-c4nc5c(-c6cccc(F)c6)nccc5[nH]4)c3c2)c1 [Compound 1783, 2-Cyclohexyl-N-(5-(3-(4-(3-fluorophenyl)-1H-imidazo[4,5-c]pyridin-2-yl)-1H-indazol-5-yl)pyridin-3-yl)acetamide] | 505 nM
5 | O=C(Nc1cncc(-c2ccc3[nH]nc(-c4nc5c(-c6ccccn6)nccc5[nH]4)c3c2)c1)c1ccccc1 [Compound 141, N-(5-(3-(4-(Pyridin-2-yl)-1H-imidazo[4,5-c]pyridin-2-yl)-1H-indazol-5-yl)pyridin-3-yl)benzamide] | > 10000 nM
6 | CCCC(=O)Nc1cncc(-c2ccc3[nH]nc(-c4nc5c(-c6ccncc6)nccc5[nH]4)c3c2)c1 [Compound 121, N-(5-(3-(4-(Pyridin-4-yl)-1H-imidazo[4,5-c]pyridin-2-yl)-1H-indazol-5-yl)pyridin-3-yl)butyramide] | 102 nM
7 | Fc1cccc(-c2nccc3[nH]c(-c4n[nH]c5ccc(-c6cncc(OCCN7CCCC7)c6)cc45)nc23)c1 [Compound 1778, 4-(3-Fluorophenyl)-2-(5-(5-(2-(pyrrolidin-1-yl)ethoxy)pyridin-3-yl)-1H-indazol-3-yl)-1H-imidazo[4,5-c]pyridine] | 280 nM
8 | Fc1cccc(-c2nccc3[nH]c(-c4n[nH]c5ccc(-c6cncc(OCc7ccccc7)c6)cc45)nc23)c1 [Compound 1782, 2-(5-(5-(Benzyloxy)pyridin-3-yl)-1H-indazol-3-yl)-4-(3-fluorophenyl)-1H-imidazo[4,5-c]pyridine] | 575 nM
9 | CCCCC(=O)Nc1cncc(-c2ccc3[nH]nc(-c4nc5c(-c6ccccn6)nccc5[nH]4)c3c2)c1 [Compound 148, N-(5-(3-(4-(Pyridin-2-yl)-1H-imidazo[4,5-c]pyridin-2-yl)-1H-indazol-5-yl)pyridin-3-yl)pentanamide] | 248 nM
10 | CN(C)Cc1cncc(-c2ccc3[nH]nc(-c4nc5c(-c6cc(F)cc(CNS(C)(=O)=O)c6)nccc5[nH]4)c3c2F)c1 [Compound 1729, N-(3-(2-(5-(5-((Dimethylamino)methyl)pyridin-3-yl)-4-fluoro-1H-indazol-3-yl)-1H-imidazo[4,5-c]pyridin-4-yl)-5-fluorobenzyl)methanesulfonamide] | 1100 nM
11 | Fc1cncc(-c2ccc3[nH]nc(-c4nc5c(N6CCC(F)(F)CC6)nccc5[nH]4)c3c2)c1 [Compound 2277, 4-(4,4-Difluoropiperidin-1-yl)-2-(5-(5-fluoropyridin-3-yl)-1H-indazol-3-yl)-1H-imidazo[4,5-c]pyridine] | 315 nM
12 | CC(C)CC(=O)Nc1cncc(-c2ccc3[nH]nc(-c4nc5c(-c6cc(F)cc(OCCN(C)C)c6)nccc5[nH]4)c3c2)c1 [Compound 2076, N-(5-(3-(4-(3-(2-(Dimethylamino)ethoxy)-5-fluorophenyl)-1H-imidazo[4,5-c]pyridin-2-yl)-1H-indazol-5-yl)pyridin-3-yl)-3-methylbutanamide] | 370 nM
13 | CN(C)Cc1cncc(-c2cc3c(-c4nc5c(-c6cccc(F)c6)nccc5[nH]4)n[nH]c3cc2F)c1 [Compound 898, 1-(5-(6-Fluoro-3-(4-(3-fluorophenyl)-1H-imidazo[4,5-c]pyridin-2-yl)-1H-indazol-5-yl)pyridin-3-yl)-N,N-dimethylmethanamine] | 1450 nM
14 | CC(=O)c1ccc(-c2nccc3[nH]c(-c4n[nH]c5ccc(-c6cncc(NC(=O)CC(C)(C)C)c6)cc45)nc23)s1 [Compound 380, N-(5-(3-(4-(5-Acetylthiophen-2-yl)-1H-imidazo[4,5-c]pyridin-2-yl)-1H-indazol-5-yl)pyridin-3-yl)-3,3-dimethylbutanamide] | 187 nM
15 | CN(C)Cc1cncc(-c2cc3c(-c4nc5c(-c6cc(F)cc(CNS(C)(=O)=O)c6)nccc5[nH]4)n[nH]c3cc2F)c1 [Compound 1288, N-(3-(2-(5-(5-((Dimethylamino)methyl)pyridin-3-yl)-6-fluoro-1H-indazol-3-yl)-1H-imidazo[4,5-c]pyridin-4-yl)-5-fluorobenzyl)methanesulfonamide] | 637 nM
16 | CN1CCN(c2nccc3[nH]c(-c4n[nH]c5ccc(-c6cncc(N)c6)cc45)nc23)CC1 [Compound 211, 5-(3-(4-(4-Methylpiperazin-1-yl)-1H-imidazo[4,5-c]pyridin-2-yl)-1H-indazol-5-yl)pyridin-3-amine] | 97.1 nM
17 | CN1CCN(c2nccc3[nH]c(-c4n[nH]c5ccc(-c6cncc(F)c6)cc45)nc23)CC1 [Compound 2276, 2-(5-(5-Fluoropyridin-3-yl)-1H-indazol-3-yl)-4-(4-methylpiperazin-1-yl)-1H-imidazo[4,5-c]pyridine] | 439 nM

Molecules with a lower IC50, results first:

Row | IC50 | Compound
18 | 90 nM | CN(C)Cc1cncc(-c2cc(F)c3[nH]nc(-c4nc5c(-c6cccc(F)c6)nccc5[nH]4)c3c2)c1 [Compound 456, 1-(5-(7-Fluoro-3-(4-(3-fluorophenyl)-1H-imidazo[4,5-c]pyridin-2-yl)-1H-indazol-5-yl)pyridin-3-yl)-N,N-dimethylmethanamine]
19 | 36 nM | O=C(Cc1ccccc1)Nc1cncc(-c2ccc3[nH]nc(-c4nc5c(-c6ccncc6)nccc5[nH]4)c3c2)c1 [Compound 114, 2-Phenyl-N-(5-(3-(4-(pyridin-4-yl)-1H-imidazo[4,5-c]pyridin-2-yl)-1H-indazol-5-yl)pyridin-3-yl)acetamide]
20 | 23 nM | Cc1ncc(-c2ccc3[nH]nc(-c4nc5c(-c6cccc(F)c6)nccc5[nH]4)c3c2)n1C [Compound 1773, 2-(5-(1,2-Dimethyl-1H-imidazol-5-yl)-1H-indazol-3-yl)-4-(3-fluorophenyl)-1H-imidazo[4,5-c]pyridine]
21 | 65 nM | CN1CCN(c2nccc3[nH]c(-c4n[nH]c5ccc(-c6cccnc6)cc45)nc23)CC1 [Compound 212, 4-(4-Methylpiperazin-1-yl)-2-(5-(pyridin-3-yl)-1H-indazol-3-yl)-1H-imidazo [4,5-c]pyridine]
22 | 35 nM | CC(C)CC(=O)Nc1cncc(-c2ccc3[nH]nc(-c4nc5c(-c6cc(O)cc(F)c6)nccc5[nH]4)c3c2)c1 [Compound 2164, N-(5-(3-(4-(3-Fluoro-5-hydroxyphenyl)-1H-imidazo[4,5-c]pyridin-2-yl)-1H-indazol-5-yl)pyridin-3-yl)-3-methylbutanamide]
23 | 88.1 nM | CC(C)Nc1cncc(-c2ccc3[nH]nc(-c4nc5c(N6CCCCC6)nccc5[nH]4)c3c2)c1 [Compound 168, N-Isopropyl-5-(3-(4-(piperidin-1-yl)-1H-imidazo[4,5-c]pyridin-2-yl)-1H-indazol-5-yl)pyridin-3-amine]
24 | 20 nM | COc1cc(F)cc(-c2nccc3[nH]c(-c4n[nH]c5ccc(-c6cncc(NC(=O)CC(C)C)c6)cc45)nc23)c1 [Compound 2208, N-(5-(3-(4-(3-Fluoro-5-methoxyphenyl)-1H-imidazo[4,5-c]pyridin-2-yl)-1H-indazol-5-yl)pyridin-3-yl)-3-methylbutanamide]
25 | 70 nM | CN1CCN(c2nccc3[nH]c(-c4n[nH]c5ccc(-c6cn[nH]c6)cc45)nc23)CC1 [Compound 1915, 2-(5-(1H-pyrazol-4-yl)-1H-indazol-3-yl)-4-(4-methylpiperazin-1-yl)-1H-imidazo[4,5-c]pyridine]
26 | 50 nM | FC1(F)CCN(c2nccc3[nH]c(-c4n[nH]c5ccc(-c6cccnc6)cc45)nc23)CC1 [Compound 2273, 4-(4,4-Difluoropiperidin-1-yl)-2-(5-(pyridin-3-yl)-1H-indazol-3-yl)-1H-imidazo[4,5-c]pyridine]
27 | 20 nM | c1cncc(-c2ccc3[nH]nc(-c4nc5c(N6CCOCC6)nccc5[nH]4)c3c2)c1 [Compound 2272, 4-(2-(5-(Pyridin-3-yl)-1H-indazol-3-yl)-1H-imidazo[4,5-c]pyridin-4-yl) morpholine]
28 | 20 nM | Cn1cc(-c2ccc3[nH]nc(-c4nc5c(N6CCC(F)(F)CC6)nccc5[nH]4)c3c2)cn1 [Compound 2281, 4-(4,4-Difluoropiperidin-1-yl)-2-(5-(1-methyl-1H-pyrazol-4-yl)-1H-indazol-3-yl)-1H-imidazo[4,5-c]pyridine]

Source: patent US10081631B2, “2-(1H-indazol-3-yl)-1H-imidazo[4,5-C]pyridine and therapeutic uses thereof” (Samumed, LLC, priority 2014, dated 2018)
